Values of other authors as cited in US10828268B2 (priority 2013, dated 2020).

Details: human, taken orally

oral bioavailability: poorly bioavailable
SMILES: COc1cc(/C=C/C(=O)CC(=O)/C=C/c2ccc(O)c(OC)c2)ccc1O [curcumin]
